In brackets after ≈: the same amount, converted by molar mass.
What was measured:
[1] = tested on: E. coli ΔTolC-Pore (GKCW103, FhuAΔC/Δ4L pore); conditions: 0.1% arabinose, LB, 37° C., 16 h
Procedure: (§1) Susceptibilities of E. coli and P. aeruginosa cells to different classes of antibiotics were determined by two-fold broth dilution method [1] with following modifications. Cells were grown in Luria-Bertani (LB) broth (tryptone 10 g/L, yeast extract 5 g/L and NaCl 5 g/L) with appropriate selection markers as needed, at 37° C. with shaking at 200 rpm. When needed, at OD600˜0.3, either L-arabinose (final concentration 0.1%) or IPTG (final concentration 0.1 mM) were added to induce the expression of the pore and cells were further incubated until OD600 reached 1.0. MICs of various antimicrobial agents were measured in 96-well micro-titer plates. For this purpose, exponentially growing cells were inoculated at a density of 10^5 cells/ml into wells containing LB medium in the presence of two-fold increasing concentrations of drugs under investigation at constant inducer concentration of 0.1% arabinose for E. coli or 0.1 mM IPTG for P. aeruginosa strains. Cell growth was determined visually or using Spark 10M microplate reader (Tecan) after incubation of the micro-titer plates at 37° C. for 16 h.
(§2) For this purpose, induced cells were dispensed into 96-well microplates with LB medium containing two-fold dilutions of an antibiotic of interest and a respective concentration of an inducer.

[2] = tested on: P. aeruginosa PAO1Δ3 (Δ3); conditions: P. aeruginosa Δ3 without pore; 0.1 mM IPTG; LB, 37° C., 16 h
Procedure: as §1, §2

[3] = tested on: E. coli WT, WT-Pore, ΔTolC, ΔTolC-Pore; format: cell-based, Escherichia coli; conditions: E. coli
[4] = tested on: E. coli WT-Pore (GKCW101, FhuAΔC/Δ4L pore); experiment: microbe, parasite or virus in culture; conditions: Escherichia coli, 16 h, read-out: MIC BW 25113 (WT) Pore
Procedure: as §1, §2

E. coli GD102 (ΔTolC) = conditions: E. coli ΔTolC without pore; 0.1% arabinose; LB, 37° C., 16 h
Procedure: as §1, §2

E. coli BW 25113 (WT) = experiment: microbe, parasite or virus in culture; conditions: Escherichia coli, 16 h, read-out: MIC BW 25113 (WT) —
Procedure: as §1, §2

[5] = tested on: P. aeruginosa Δ3-Pore (GKCW116, FhuAΔC/Δ4L pore); experiment: MIC, two-fold broth dilution, P. aeruginosa Δ3-Pore; conditions: P. aeruginosa Δ3-Pore; 0.1 mM IPTG; LB, 37° C., 16 h
Procedure: as §1, §2

[6] = tested on: P. aeruginosa PAO1, PAO1-Pore, Δ3, Δ3-Pore; experiment: Fold MIC change between P. aeruginosa strains (OM barrier, efflux); format: cell-based, Pseudomonas aeruginosa; conditions: P. aeruginosa
P. aeruginosa PAO1 = experiment: microbe, parasite or virus in culture; conditions: Pseudomonas aeruginosa, PAO1, 16 h, read-out: MIC PAO1 —
Procedure: as §1, §2

SMILES	MIC GD102 (ΔTolC) Pore [1]	MIC Δ3 — [2]	Fold MIC change, Efflux, WT-Pore/ΔTolC-Pore [3]	Fold MIC change, Efflux, WT/ΔTolC [3]	Fold MIC change, OM barrier, WT/WT-Pore [3]	Fold MIC change, OM barrier, ΔTolC/ΔTolC-Pore [3]	MIC [4]	MIC GD102 (ΔTolC) — (E. coli GD102 (ΔTolC))	MIC (E. coli BW 25113 (WT))	MIC Δ3 Pore [5]	Fold MIC change, Efflux, PAO1-Pore/Δ3-Pore [6]	Fold MIC change, Efflux, PAO1/Δ3 [6]	Fold MIC change, OM barrier, PAO1/PAO1-Pore [6]	Fold MIC change, OM barrier, Δ3/Δ3-Pore [6]	MIC (P. aeruginosa PAO1)
CC1(C)S[C@@H]2[C@H](NC(=O)C(C(=O)O)c3ccccc3)C(=O)N2[C@H]1C(=O)O (some centres unmarked) [Carbenicillin]	0.5 µg/mL (≈ 1.32 µM)	0.5 µg/mL (≈ 1.32 µM)	1 fold	4 fold	8 fold	2 fold	0.5 µg/mL (≈ 1.32 µM)	1 µg/mL (≈ 2.64 µM)	4 µg/mL (≈ 10.6 µM)	0.063 µg/mL (≈ 0.166 µM)	32 fold	64 fold	16 fold	8 fold	32 µg/mL (≈ 84.6 µM)
CN(C)[C@@H]1C(O)=C(C(N)=O)C(=O)[C@@]2(O)C(O)=C3C(=O)c4c(O)cccc4[C@@](C)(O)[C@H]3C[C@@H]12 [Tetracycline]	0.125 µg/mL (≈ 0.281 µM)	2 µg/mL (≈ 4.5 µM)	2 fold	4 fold	2 fold	1 fold	0.25 µg/mL (≈ 0.563 µM)	0.125 µg/mL (≈ 0.281 µM)	0.5 µg/mL (≈ 1.13 µM)	0.031 µg/mL (≈ 0.0698 µM)	16 fold	2 fold	8 fold	64 fold	4 µg/mL (≈ 9 µM)
CC1(C)S[C@@H]2[C@H](NC(=O)[C@H](N)c3ccccc3)C(=O)N2[C@H]1C(=O)O [Ampicillin]	0.5 µg/mL (≈ 1.43 µM)	–	–	–	–	–	2 µg/mL (≈ 5.72 µM)	8 µg/mL (≈ 22.9 µM)	16 µg/mL (≈ 45.8 µM)	–	–	–	–	–	–
Cc1onc(-c2ccccc2Cl)c1C(=O)N[C@@H]1C(=O)N2[C@@H]1SC(C)(C)[C@@H]2C(=O)O [Cloxacillin]	1 µg/mL (≈ 2.29 µM)	128 µg/mL (≈ 294 µM)	128 fold	512 fold	4 fold	1 fold	128 µg/mL (≈ 294 µM)	1 µg/mL (≈ 2.29 µM)	512 µg/mL (≈ 1170 µM)	8 µg/mL (≈ 18.4 µM)	64 fold	≧8 fold	≧4 fold	16 fold	> 2050 µg/mL
[H]/N=C(/N)N[C@H]1[C@H](O)[C@@H](O)[C@H](O[C@@H]2O[C@@H](C)[C@](O)(C=O)[C@H]2O[C@@H]2O[C@@H](CO)[C@H](O)[C@@H](O)[C@@H]2NC)[C@@H](N/C(N)=N\[H])[C@@H]1O [Streptomycin]	2 µg/mL (≈ 3.44 µM)	–	1 fold	0.5 fold	1 fold	2 fold	2 µg/mL (≈ 3.44 µM)	4 µg/mL (≈ 6.88 µM)	2 µg/mL (≈ 3.44 µM)	–	–	–	–	–	–
Nc1ccc2cc3ccc(N)cc3nc2c1 [Proflavine]	8 µg/mL (≈ 38.2 µM)	–	4 fold	4 fold	1 fold	1 fold	32 µg/mL (≈ 153 µM)	8 µg/mL (≈ 38.2 µM)	32 µg/mL (≈ 153 µM)	–	–	–	–	–	–
C[C@H]1COc2c(N3CCN(C)CC3)c(F)cc3c(=O)c(C(=O)O)cn1c23 [Levofloxacin]	0.004 µg/mL (≈ 0.0111 µM)	–	–	–	–	–	0.016 µg/mL (≈ 0.0443 µM)	0.004 µg/mL (≈ 0.0111 µM)	–	–	–	–	–	–	0.125 µg/mL (≈ 0.346 µM)
CCC[C@@H]1C[C@@H](C(=O)N[C@@H]([C@H]2O[C@H](SC)[C@H](O)[C@@H](O)[C@H]2O)[C@@H](C)O)N(C)C1 [Lincomycin]	64 µg/mL (≈ 157 µM)	–	8 fold	8 fold	1 fold	1 fold	512 µg/mL (≈ 1260 µM)	64 µg/mL (≈ 157 µM)	512 µg/mL (≈ 1260 µM)	–	–	–	–	–	–
